US10995101B2, “2-oxo-thiazole derivatives as A2A inhibitors and compounds for use in the treatment of cancers” (iTeos Therapeutics SA, priority 2017, dated 2021)

Assays:
in vitro = settings: human, Caco-2, pH 7.4
Method: 2 μM dosing solutions for reference compounds and test compounds are prepared by spiking the appropriate volume of intermediate solution to TB with and without 1 μM Zosuquidar. The final concentration of DMSO is no more than 1% (v/v).
Caco-2 cells are grown in MEM supplemented with 2 mM L-glutamine, 10% FBS, 100 U/mL penicillin-G and 100 μg/mL streptomycin. The cells are incubated at 37° C., 5% CO2 and relatively saturated humidity. After reaching 80-90% confluency, the cells are gently detached with 0.05% trypsin-EDTA solution.
TB and dosing solutions were pre-warmed to 37° C. before transport assay. The cell monolayer was washed twice with HBSS containing 10 mM HEPES. For A-B (apical to basolateral) directional transport assay, 75 μL dosing solution is added to the apical well. Fill each basolateral well with 250 μL TB. For B-A (basolateral to apical) directional transport assay, 250 μL of dosing solution is added to the basolateral well after filling each apical well with 75 μL TB. […] The plates are incubated for 120 minutes at 37° C. with 5% CO2 and saturated humidity. The time zero samples are generated by mixing 50 μL initial dosing solution of test compound or reference compound with 100 μL TB and 250 μL quench solution (acetonitrile (ACN) or other appropriate solvent with internal standard(s), based on the bioanalytical method development). At 120 minutes, 150 μL of solution is collected from each A-B receiver well followed by addition of 250 μL quench solution to get A-B receiver sample. And for other samples (A-B donor, B-A donor and receiver), 50 μL of solution is collected from each corresponding well followed by addition of 250 μL quench solution and 100 μL TB. All samples are vortex-mixed and centrifuged at 3220 g for 20 minutes. Subsequently, supernatant is diluted with ultra pure water for LC-MS/MS analysis. The concentrations of test compound in all samples are determined by LC-MS/MS and expressed as peak area ratio of analyte to internal standard.
The concentration of samples is expressed using the peak area ratio of Analyte to Internal Standard (Analyte/IS).
The efflux ratio is calculated using the following equation: Efflux ratio=Papp(A−B)/Papp(B−A) • where Papp (A−B) and Papp (B−A) are the Papp values of compound in Apical to Basolateral and Basolateral to Apical directional transport, respectively.

A2A receptor = A2A receptor (Homo sapiens, UniProt P29274); assay: Inhibition of cAMP production in HEK cells; type: cell-based; settings: HEK-293 cells with A2A receptor
[1] = IC50 (nM) (3 nM NECA as agonist, 0.1% BSA), 3 nM NECA as agonist, 0.1% BSA
[2] = IC50 (nM) (5 μM Adenosine as agonist, 2.0% HSA), 5 μM Adenosine as agonist, 2.0% HSA

Sequence of A2A receptor (P29274 whole entry): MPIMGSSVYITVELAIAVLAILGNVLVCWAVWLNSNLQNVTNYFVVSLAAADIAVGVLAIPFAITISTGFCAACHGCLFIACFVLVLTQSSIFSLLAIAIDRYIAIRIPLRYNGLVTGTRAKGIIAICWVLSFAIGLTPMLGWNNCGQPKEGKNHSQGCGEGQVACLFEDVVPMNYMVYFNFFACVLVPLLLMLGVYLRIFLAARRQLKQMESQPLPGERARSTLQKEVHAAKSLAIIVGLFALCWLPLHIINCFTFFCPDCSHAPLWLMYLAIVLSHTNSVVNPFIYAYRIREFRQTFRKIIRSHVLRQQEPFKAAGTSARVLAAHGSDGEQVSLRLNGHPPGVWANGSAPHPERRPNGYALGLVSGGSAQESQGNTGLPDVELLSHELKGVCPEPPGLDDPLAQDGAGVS

Row | Compound | efflux ratio at 120 min, 2 μM (in vitro) | IC50 (A2A receptor; [1]) | IC50 (A2A receptor; [2])
1 | Nc1nc2c(sc(=O)n2CCN2CCN(c3cc(O[C@@H]4CCNC4=O)c(F)cc3F)CC2)c2nc(-c3ccco3)nn12 [Compound 96, (R)-5-amino-3-(2-(4-(2,4-difluoro-5-((2-oxopyrrolidin-3-yl)oxy)phenyl)piperazin-1-yl)ethyl)-8-(furan-2-yl)thiazolo[5,4-e][1,2,4]triazolo[1,5-c]pyrimidin-2(3H)-one] | 118 | 0.4 nM | 19 nM
2 | Nc1nc2c(sc(=O)n2CCN2CCN(c3cc(C(=O)NCC4COCCN4)c(F)cc3F)CC2)c2nc(-c3ccco3)nn12 (centres unmarked) [Compound 98, 5-(4-(2-(5-amino-8-(furan-2-yl)-2-oxothiazolo[5,4-e][1,2,4]triazolo[1,5-c]pyrimidin-3(2H)-yl)ethyl)piperazin-1-yl)-2,4-difluoro-N-(morpholin-3-ylmethyl)benzamide] | 53 | 0.1 nM | 7 nM
3 | Nc1nc2c(sc(=O)n2CCN2CCN(c3ccc(OCC4COCCN4)cc3F)CC2)c2nc(-c3ccco3)nn12 (centres unmarked) [Compound 99, 5-amino-3-(2-(4-(2-fluoro-4-(morpholin-3-ylmethoxy)phenyl)piperazin-1-yl)ethyl)-8-(furan-2-yl)thiazolo[5,4-e][1,2,4]triazolo[1,5-c]pyrimidin-2(3H)-one] | 13 | 0.5 nM | 64 nM
4 | Nc1nc2c(sc(=O)n2CCN2CCN(c3ccc(OCC4CNCCO4)cc3F)CC2)c2nc(-c3ccco3)nn12 (centres unmarked) [Compound 100, 5-amino-3-(2-(4-(2-fluoro-4-(morpholin-2-ylmethoxy)phenyl)piperazin-1-yl)ethyl)-8-(furan-2-yl)thiazolo[5,4-e][1,2,4]triazolo[1,5-c]pyrimidin-2(3H)-one] | 66 | 0.1 nM | 10 nM
5 | Nc1nc2c(sc(=O)n2CCN2CCN(c3ccc(O[C@@H]4CNC[C@H]4F)cc3F)CC2)c2nc(-c3ccco3)nn12 [Compound 101, 5-amino-3-(2-(4-(2-fluoro-4-(((3R,4R)-4-fluoropyrrolidin-3-yl)oxy)phenyl)piperazin-1-yl)ethyl)-8-(furan-2-yl)thiazolo[5,4-e][1,2,4]triazolo[1,5-c]pyrimidin-2(3H)-one] | 81 | 0.7 nM | 124 nM
6 | Nc1nc2c(sc(=O)n2CCN2CCN(c3ccc(O[C@H]4CNC[C@@H]4F)cc3F)CC2)c2nc(-c3ccco3)nn12 [Compound 102, 5-amino-3-(2-(4-(2-fluoro-4-(((3S,4S)-4-fluoropyrrolidin-3-yl)oxy)phenyl)piperazin-1-yl)ethyl)-8-(furan-2-yl)thiazolo[5,4-e][1,2,4]triazolo[1,5-c]pyrimidin-2(3H)-one] | 91 | 0.7 nM | 185 nM
7 | Nc1nc2c(sc(=O)n2CCN2CCN(c3ccc(O[C@@H]4CNC[C@@H]4F)cc3F)CC2)c2nc(-c3ccco3)nn12 [Compound 103, 5-amino-3-(2-(4-(2-fluoro-4-(((3R,4S)-4-fluoropyrrolidin-3-yl)oxy)phenyl)piperazin-1-yl)ethyl)-8-(furan-2-yl)thiazolo[5,4-e][1,2,4]triazolo[1,5-c]pyrimidin-2(3H)-one] | 20 | 1.1 nM | –
8 | Nc1nc2c(sc(=O)n2CCN2CCN(c3ccc(O[C@H]4CNC[C@H]4F)cc3F)CC2)c2nc(-c3ccco3)nn12 [Compound 104, 5-amino-3-(2-(4-(2-fluoro-4-(((3S,4R)-4-fluoropyrrolidin-3-yl)oxy)phenyl)piperazin-1-yl)ethyl)-8-(furan-2-yl)thiazolo[5,4-e][1,2,4]triazolo[1,5-c]pyrimidin-2(3H)-one] | 20 | 0.5 nM | 45 nM
9 | Nc1nc2c(sc(=O)n2CCN2CCN(c3ccc(C(=O)NCC4COCCN4)cc3F)CC2)c2nc(-c3ccco3)nn12 (centres unmarked) [Compound 107, 4-(4-(2-(5-amino-8-(furan-2-yl)-2-oxothiazolo[5,4-e][1,2,4]triazolo[1,5-c]pyrimidin-3(2H)-yl)ethyl)piperazin-1-yl)-3-fluoro-N-(morpholin-3-ylmethyl)benzamide] | 680 | 0.1 nM | 35 nM
10 | Nc1nc2c(sc(=O)n2CCN2CCN(c3ccc(OC4CNC4)cc3)CC2)c2nc(-c3ccco3)nn12 [Compound 108, 5-amino-3-(2-(4-(4-(azetidin-3-yloxy)phenyl)piperazin-1-yl)ethyl)-8-(furan-2-yl)thiazolo[5,4-e][1,2,4]triazolo[1,5-c]pyrimidin-2(3H)-one] | 191 | 0.7 nM | 172 nM
11 | Nc1nc2c(sc(=O)n2CCN2CCN(c3cc(O[C@H]4CC[S@@+]([O-])CC4)c(F)cc3F)CC2)c2nc(-c3ccco3)nn12 [Compound 111, 5-amino-3-(2-(4-(2,4-difluoro-5-(((1s,4s)-1-oxidotetrahydro-2H-thiopyran-4-yl)oxy)phenyl)piperazin-1-yl)ethyl)-8-(furan-2-yl)thiazolo[5,4-e][1,2,4]triazolo[1,5-c]pyrimidin-2(3H)-one] | 583 | 0.6 nM | 91 nM
12 | Nc1nc2c(sc(=O)n2CCN2CCN(c3cc(O[C@H]4CC[S@+]([O-])CC4)c(F)cc3F)CC2)c2nc(-c3ccco3)nn12 [Compound 112, 5-amino-3-(2-(4-(2,4-difluoro-5-(((1r,4r)-1-oxidotetrahydro-2H-thiopyran-4-yl)oxy)phenyl)piperazin-1-yl)ethyl)-8-(furan-2-yl)thiazolo[5,4-e][1,2,4]triazolo[1,5-c]pyrimidin-2(3H)-one] | 605 | 0.8 nM | 53 nM
13 | C[S@+]([O-])CCNC(=O)c1cc(N2CCN(CCn3c(=O)sc4c3nc(N)n3nc(-c5ccco5)nc43)CC2)c(F)cc1F [Compound 113, (S)-5-(4-(2-(5-amino-8-(furan-2-yl)-2-oxothiazolo[5,4-e][1,2,4]triazolo[1,5-c]pyrimidin-3(2H)-yl)ethyl)piperazin-1-yl)-2,4-difluoro-N-(2-(methylsulfinyl)ethyl)benzamide] | 374 | 0.4 nM | 37 nM
14 | C[S@@+]([O-])CCNC(=O)c1cc(N2CCN(CCn3c(=O)sc4c3nc(N)n3nc(-c5ccco5)nc43)CC2)c(F)cc1F [Compound 114, (R)-5-(4-(2-(5-amino-8-(furan-2-yl)-2-oxothiazolo[5,4-e][1,2,4]triazolo[1,5-c]pyrimidin-3(2H)-yl)ethyl)piperazin-1-yl)-2,4-difluoro-N-(2-(methylsulfinyl)ethyl)benzamide] | 403 | 0.3 nM | 80 nM
15 | CN(CC[S@@+](C)[O-])C(=O)c1cc(N2CCN(CCn3c(=O)sc4c3nc(N)n3nc(-c5ccco5)nc43)CC2)c(F)cc1F [Compound 116, (R)-5-(4-(2-(5-amino-8-(furan-2-yl)-2-oxothiazolo[5,4-e][1,2,4]triazolo[1,5-c]pyrimidin-3(2H)-yl)ethyl)piperazin-1-yl)-2,4-difluoro-N-methyl-N-(2-(methylsulfinyl)ethyl)benzamide] | 421 | 1.2 nM | 245 nM
16 | Nc1nc2c(sc(=O)n2CCN2CCN(c3cc(C(=O)N4CC[S+]([O-])CC4)c(F)cc3F)CC2)c2nc(-c3ccco3)nn12 [Compound 117, 5-amino-3-(2-(4-(2,4-difluoro-5-(1-oxidothiomorpholine-4-carbonyl)phenyl)piperazin-1-yl)ethyl)-8-(furan-2-yl)thiazolo[5,4-e][1,2,4]triazolo[1,5-c]pyrimidin-2(3H)-one] | 12 | 329 nM | 3160 nM
17 | C[S@+]([O-])CCNC(=O)c1ccc(N2CCN(CCn3c(=O)sc4c3nc(N)n3nc(-c5ccco5)nc43)CC2)c(F)c1 [Compound 123, (S)-4-(4-(2-(5-amino-8-(furan-2-yl)-2-oxothiazolo[5,4-e][1,2,4]triazolo[1,5-c]pyrimidin-3(2H)-yl)ethyl)piperazin-1-yl)-3-fluoro-N-(2-(methylsulfinyl)ethyl)benzamide] | 120 | 1.5 nM | 1440 nM
18 | C[S@@+]([O-])CCNC(=O)c1ccc(N2CCN(CCn3c(=O)sc4c3nc(N)n3nc(-c5ccco5)nc43)CC2)c(F)c1 [Compound 124, (R)-4-(4-(2-(5-amino-8-(furan-2-yl)-2-oxothiazolo[5,4-e][1,2,4]triazolo[1,5-c]pyrimidin-3(2H)-yl)ethyl)piperazin-1-yl)-3-fluoro-N-(2-(methylsulfinyl)ethyl)benzamide] | 54 | 2.3 nM | 2040 nM
19 | Nc1nc2c(sc(=O)n2CCN2CCN(c3ccc(C(=O)N4CC[S+]([O-])CC4)cc3F)CC2)c2nc(-c3ccco3)nn12 [Compound 125, 5-amino-3-(2-(4-(2-fluoro-4-(1-oxidothiomorpholine-4-carbonyl)phenyl)piperazin-1-yl)ethyl)-8-(furan-2-yl)thiazolo[5,4-e][1,2,4]triazolo[1,5-c]pyrimidin-2(3H)-one] | 127 | 2.6 nM | 3620 nM
20 | Nc1nc2c(sc(=O)n2CCN2CCN(c3ccc(N4CC[S+]([O-])CC4)cc3F)CC2)c2nc(-c3ccco3)nn12 [Compound 126, 5-amino-3-(2-(4-(2-fluoro-4-(1-oxidothiomorpholino)phenyl)piperazin-1-yl)ethyl)-8-(furan-2-yl)thiazolo[5,4-e][1,2,4]triazolo[1,5-c]pyrimidin-2(3H)-one] | 83 | 0.6 nM | 78 nM
21 | Nc1nc2c(sc(=O)n2CCN2CCN(c3cc(OC[C@H](O)CO)c(F)cc3F)CC2)c2nc(-c3ccco3)nn12 [Compound 128, (R)-5-amino-3-(2-(4-(5-(2,3-dihydroxypropoxy)-2,4-difluorophenyl)piperazin-1-yl)ethyl)-8-(furan-2-yl)thiazolo[5,4-e][1,2,4]triazolo[1,5-c]pyrimidin-2(3H)-one] | 419 | 0.4 nM | 46 nM
